Source: US20240165152A1, “COMPOSITIONS AND METHODS FOR ACTIVATING NK CELLS” (The Regents of the University of California, priority 2017, published 2024)

Assays:
OSCSCs = experiment: Cell death (PI staining) of OSCSCs differentiated with NK supernatants after chemotherapeutic drugs; format: cell-based, human
Experimental: FIG. 67A-FIG. 67B show CDDP or Paclitaxel with and without NAC induce significant cell death in OSCSCs differentiated with NK-supernatants and not in poorly-differentiated tumors. Highly purified NK cells were treated with the combination of IL-2 (1000 U/mL) and anti-CD16 mAb ([…]) for 18 hours, after which the NK supernatants were added to OSCSCs in the presence of anti-TNF-a (1:100) and anti-IFN-g (1:100) for a period of 5 days. Thereafter, OSCSCs were detached and treated with/without Cisplatin for 18-24 hours. The viability of OSCSCs was then determined using PI staining and flow cytometric analysis. One of 3 representative experiments is shown in this figure (FIG. 67A). OSCSCs were treated with the supernatants from NK cells as described in FIG. 67A. Afterwards, tumors were detached and treated with/without NAC ([…]) for 24 hours, followed by treatment with Paclitaxel for 18-24 hours. OSCSCs viability was determined by PI staining and flow cytometric analysis. One of 3 representative experiments is shown in this figure (FIG. 67B).
Staining was performed by labeling the cells with antibodies or propidium iodide, as described previously. The cells were washed twice with ice-cold PBS containing 1% BSA. Predetermined optimal concentrations of specific human monoclonal antibodies were added to 1×10^4 cells in 50 pl of cold-BSA and cells were incubated on ice for 30 min. Thereafter cells were washed in cold PBS-BSA and brought to 500 pl with PBS-BSA. For cell death assay 1×10^4 cells in 50 pl of cold-BSA were stained with 8 µg/ml propidium iodide and cells were incubated on ice for 10 min, and brought to 500 pl with PBS-BSA. Flow cytometry analysis was performed using Beckman 485 Coulter Epics XL cytometer (Brea, CA) and results were analyzed in FlowJo vX software (Ashland, OR).
NK cells were treated with a combination of anti-CD16 monoclonal antibody (3 pg/mL) and IL-2 (1,000 U/mL) for 18 hours before supernatants were removed and used for differentiation experiments. The amounts of IFN-y produced by activated NK cells were measured with IFN-γ ELISA (Biolegend, CA, USA). […]

OSCCs = experiment: Cell death of OSCCs after chemotherapeutic drugs; format: cell-based, human; conditions: patient-derived differentiated oral tumor

CC(=O)N[C@@H](CS)C(=O)O [NAC]
cell death of OSCSCs differentiated with NK supernatants (OSCSCs): significantly increased

[NH2][Pt]([NH2])([Cl])[Cl] [CDDP, Cisplatin]
cell death of OSCSCs differentiated with NK supernatants (OSCSCs): significant susceptibility | cell death of OSCCs (OSCCs): higher cell death

CC(=O)O[C@H]1C(=O)[C@@]2(C)[C@H]([C@H](OC(=O)c3ccccc3)[C@]3(O)C[C@H](OC(=O)[C@H](O)[C@@H](NC(=O)c4ccccc4)c4ccccc4)C(C)=C1C3(C)C)[C@]1(OC(C)=O)CO[C@@H]1C[C@@H]2O [paclitaxel]
cell death of OSCSCs differentiated with NK supernatants (OSCSCs): higher cell death
